Test results taken from US8598128B2, “Fructosylated puerarin, and preparation method and use thereof” (priority 2010, dated 2013).
In brackets after ≈: the same amount, converted by molar mass. Entries after “also recorded” stand apart in the source; their conditions may differ.

Key:
[1] = Solubility determination at 25° C.
myocardio ischemia mice = test: T wave amplitude variation in pituitrin acute myocardial ischemia model; type: in vivo, Sprague-Dawley mice (SD mice)
From the text: Embodiment 6: […] Pituitrin injection was purchased from Nanjing Xinbai Pharmaceutical Co., Ltd., normal saline injection from Nanjing Xiaoying Pharmaceutical Co., Ltd., and DMSO, PG, and anhydrous ethanol were of chromatographic class. […] The data were presented with, and tested with t. P<0.05 indicates substantial difference, P<0.01 indicates very substantial difference; and P<0.001 indicates extremely substantial difference.

O=c1c(-c2ccc(O)cc2)coc2c([C@@H]3O[C@H](CO[C@]4(CO)O[C@H](CO)[C@@H](O)[C@@H]4O)[C@@H](O)[C@H](O)[C@H]3O)c(O)ccc12 [monofructosyl-β(2,6)-puerarin]
solubility [1]: 26.0 mg/mL (≈ 44.9 mM)
solubility relative to puerarin ([1]; puerarin 5.2 g/L): 5 times
T wave amplitude variation (myocardio ischemia mice; 12.5 mg/kg, 15 s after Pit): 0.082 ± 0.060 mv
T wave amplitude variation (myocardio ischemia mice; 12.5 mg/kg, 30 s after Pit): 0.097 ± 0.084 mv
T wave amplitude variation (myocardio ischemia mice; 12.5 mg/kg, 1 min after Pit): 0.051 ± 0.034 mv
T wave amplitude variation (myocardio ischemia mice; 12.5 mg/kg, 2 min after Pit): 0.102 ± 0.071 mv
T wave amplitude variation (myocardio ischemia mice; 12.5 mg/kg, 5 min after Pit): 0.069 ± 0.040 mv
T wave amplitude variation (myocardio ischemia mice; 12.5 mg/kg, 10 min after Pit): 0.068 ± 0.038 mv
T wave amplitude variation (myocardio ischemia mice; 25 mg/kg, 15 s after Pit): 0.053 ± 0.027 mv
T wave amplitude variation (myocardio ischemia mice; 25 mg/kg, 30 s after Pit): 0.105 ± 0.076 mv
T wave amplitude variation (myocardio ischemia mice; 25 mg/kg, 1 min after Pit): 0.116 ± 0.088 mv
T wave amplitude variation (myocardio ischemia mice; 25 mg/kg, 2 min after Pit): 0.112 ± 0.087 mv
T wave amplitude variation (myocardio ischemia mice; 25 mg/kg, 5 min after Pit): 0.067 ± 0.038 mv
T wave amplitude variation (myocardio ischemia mice; 25 mg/kg, 10 min after Pit): 0.054 ± 0.038 mv
T wave amplitude variation (myocardio ischemia mice; 50 mg/kg, 15 s after Pit): 0.092 ± 0.067 mv
T wave amplitude variation (myocardio ischemia mice; 50 mg/kg, 30 s after Pit): 0.118 ± 0.087 mv
T wave amplitude variation (myocardio ischemia mice; 50 mg/kg, 1 min after Pit): 0.109 ± 0.084 mv
T wave amplitude variation (myocardio ischemia mice; 50 mg/kg, 2 min after Pit): 0.106 ± 0.091 mv
T wave amplitude variation (myocardio ischemia mice; 50 mg/kg, 5 min after Pit): 0.080 ± 0.070 mv
T wave amplitude variation (myocardio ischemia mice; 50 mg/kg, 10 min after Pit): 0.082 ± 0.058 mv
effect against myocardial ischemia (T wave) in words (myocardio ischemia mice; 12.5, 25 and 50 mg/kg, compared with puerarin): can better resist myocardial ischemia than puerarin; also recorded: has better effect to resist myocardio ischemia than puerarin
